The values that follow come from US11723362B2, “Broad-spectrum synergistic antimicrobial compositions” (The United States of America, as represented by the …, priority 2019, dated 2023).

Where only a bound is given, the exact number is not on record here.

One test has as its system P. aeruginosa. Put plainly: Minimum inhibitory concentration (MIC) in Mueller-Hinton broth, pH 7.4. Format: cell-based, Pseudomonas aeruginosa. Further details: Minimum inhibitory concentration: unit not given here. The following applies: for Minimum inhibitory concentration: Table 2, ATCC 9027. On the procedure:
(§1) This example illustrates the preparation of testing parameters for antimicrobial activity of components of the inventive composition and related compositions for comparison. […] Microbes were grown on Mueller-Hinton agar (MHA, Sigma-Aldrich, St. Louis, Mo.) for 7 days until heavy sporulation was present. Spores from two agar plates were captured in sterile phosphate-buffered saline (PBS) using a sterile swab. Spores were enumerated by serial dilution in Dey-Engley neutralizing broth (DEB; Sigma-Aldrich) and spread plating on MHA. A typical spore stock was determined to contain ˜2×10^7 spores/mL. Bacteria were grown in MH broth for 24 h at 37° C., enumerated by plating, and diluted to the desired concentration as indicated.
(§2) To assess the antimicrobial activity of hydroxamic acids and derivatives, the inhibitory properties of commercially available hydroxylamines and hydroxamic acids were compared to their alcohol and carboxylic acid analogues diluted in Mueller-Hinton broth at pH 7.4 (Table 1).
Guanylhydrazones 7 and 8, which represent a class of broad-spectrum antimicrobials, alone and in combination with hydroxamic acids were evaluated.

The next test has as its system A. brasiliensis. The test is described as above. Format: cell-based, Aspergillus brasiliensis. Further details: Minimum inhibitory concentration: unit not given here. The following applies: for Minimum inhibitory concentration: Table 2. On the procedure: as §1, §2
The test system of test [1] is Aspergillus brasiliensis ATCC 16404. In words: Fungicidal activity in ionic surfactant hand wash / foamy hand soap base formula (HW). In kind it is cell-based. To be noted: pH 7.0; for Log reduction Week 1 / Log reduction Week 2 / Log Reduction Day 5 / Log Reduction Day 12: HW; for Log reduction Week 1 / Log reduction Week 2: 1 × 10^6 CFU/mL, 25° C.; for CFU/mL, incubation time 3 d / CFU/mL, incubation time 7 d / CFU/mL, incubation time 13 d / CFU/mL, incubation time 18 d / CFU/mL, incubation time 20 d: hand soap formula, 0.4% hydroxamic acid alone, minimum detection limit 5.0 × 10^1; for Log Reduction Day 5 / Log Reduction Day 12: substance alone 0.5%, high loading 10^7 CFU/mL. Here is the method: as §1
All test formulas were adjusted to the desired pH using citric acid and/or NaOH. […] All tubes were kept at room temperature (˜21-22° C.) for 3 weeks. About 100 μL of each inoculated foamy hand soap mixture was diluted 1:10 in DEB and 100 μL of this dilution was spread plated on MHA at several time points (e.g. 3 d, 7 d, 13 d, 18 d, and 20 d). Plates were incubated at room temperature for 3-5 days for mold (1-2 days for bacteria) and colonies enumerated.
The preservative activity of a hydroxamic acid/guanylhydrazone combination was compared to other antimicrobial mixtures in an ionic surfactant-containing formula. […] The fungicidal properties of a mixture of benzhydroxamic acid and guanylhydrazone (1+7) was compared to commercial antimicrobials representing different functional classes (Table 3).

Test [2] deals with Pseudomonas aeruginosa ATCC 9027. Put plainly: Bactericidal activity in ionic surfactant hand wash / foamy hand soap base formula (HW). In kind it is cell-based. To be noted: HW, pH 7.0; substance alone 0.2%; 1 × 10^6 CFU/ml; 37° C. Here is the method:
This example illustrates the preparation of testing parameters for antimicrobial activity of components of the inventive composition and related compositions for comparison. […] Mold were grown and minimum inhibitory tests performed as previously reported (see e.g., Buckley, H. L. et al. ACS Sustain. Chem. Eng. 5, 4320-4331, 2017). Microbes were grown on Mueller-Hinton agar (MHA, Sigma-Aldrich, St. Louis, Mo.) for 7 days until heavy sporulation was present. Spores from two agar plates were captured in sterile phosphate-buffered saline (PBS) using a sterile swab. Spores were enumerated by serial dilution in Dey-Engley neutralizing broth (DEB; Sigma-Aldrich) and spread plating on MHA. A typical spore stock was determined to contain ˜2×10^7 spores/mL. Bacteria were grown in MH broth for 24 h at 37° C., enumerated by plating, and diluted to the desired concentration as indicated.
To test the various compounds, a foamy hand soap base formula was made with sodium lauryl sulfate (SLS, 2.4% w/w; Sulfochem SLS-PHP [30% active], The Lubrizol Corporation, Wickliffe, Ohio) and cocoamidopropyl betaine (CAPB, 1.2% w/w; Mackam 35 [30% active], Solvay S.A, Brussels, Belgium) in deionized water and sterilized by filtration (0.22 μm, PVDF; VWR, Radnor, Pa.). All test formulas were adjusted to the desired pH using citric acid and/or NaOH. All tubes were inoculated with 250 μL of spore inoculum (described above) to a total volume of 5 mL, for a final spore concentration of ˜1×10^6 spores/mL in each tube. […] About 100 μL of each inoculated foamy hand soap mixture was diluted 1:10 in DEB and 100 μL of this dilution was spread plated on MHA at several time points (e.g. 3 d, 7 d, 13 d, 18 d, and 20 d). Plates were incubated at room temperature for 3-5 days for mold (1-2 days for bacteria) and colonies enumerated.

The next test has as its system S. aureus. In words: Minimum inhibitory concentration (MIC) in Mueller-Hinton broth, pH 7.4. In kind it is cell-based, Staphylococcus aureus. Here is the method: as §1, §2
The subject of the next test is E. coli. The description is as above. In kind it is cell-based, Escherichia coli. On the procedure:
as §1, §2

The subject of another test is C. albicans. Described as above. Format: cell-based, Candida albicans. On the procedure:
as §1, §2

As to `CCc1ccc(C(=O)NO)cc1` [4-ethylbenzhydroxamic acid 3, 4-ethylbenzhydroxamic acid], in the test on P. aeruginosa, the Minimum inhibitory concentration was determined as 0.5. In the test with A. brasiliensis, this compound showed a Minimum inhibitory concentration of 0.06. In test [1] (0.2 wt %), the “Log reduction Week 1” value came to 4 Log and the “Log reduction Week 2” value was 1 Log. In test [1] (0.5 wt %), the “Log reduction Week 1” value amounted to 4 Log and the “Log reduction Week 2” value came out at 4 Log. In test [2], the “Day 3 Log Reduction” value is on record as 1 Log and the “Day 10 Log Reduction” value was determined as 0 Log.

In the case of `CC(C)c1ccc(C(=O)NO)cc1` [4-isopropylbenzhydroxamic acid 5, 4-isopropylbenzhydroxamic acid], the Minimum inhibitory concentration in the test with A. brasiliensis came out at 0.04. Also, in test [1], the “CFU/mL, incubation time 3 d” value is >2.5 × 10^4 CFU/mL; the “CFU/mL, incubation time 7 d” value is 1.0 × 10^4 CFU/mL; the “CFU/mL, incubation time 13 d” value is reported as 1.0 × 10^2 CFU/mL; the “CFU/mL, incubation time 18 d” value is <5.0 × 10^1 CFU/mL. The “CFU/mL, incubation time 20 d” value in test [1] was <5.0 × 10^1 CFU/mL.

For `Cc1ccc(C(=O)NO)cc1` [4-methylbenzhydroxamic acid 2, 4-methylbenzhydroxamic acid], the Minimum inhibitory concentration in the test on P. aeruginosa was determined as 0.3. The Minimum inhibitory concentration in the test with A. brasiliensis amounted to 0.02. In test [1] (0.2 wt %), the “Log reduction Week 1” value is on record as 4 Log and the “Log reduction Week 2” value came to 4 Log. Further, in test [2], the “Day 3 Log Reduction” value stood at 2 Log and the “Day 10 Log Reduction” value came out at 4 Log.

For the compound `CCCc1ccc(C(=O)NO)cc1` [4-n-propylbenzhydroxamic acid 4, 4-n-propylbenzhydroxamic acid], the Minimum inhibitory concentration with A. brasiliensis is listed as 0.02. Further, in test [1], the “CFU/mL, incubation time 3 d” value is listed as >2.5 × 10^4 CFU/mL; the “CFU/mL, incubation time 7 d” value was >2.2 × 10^4 CFU/mL; the “CFU/mL, incubation time 13 d” value is reported as 5.0 × 10^2 CFU/mL; the “CFU/mL, incubation time 18 d” value is 1.5 × 10^2 CFU/mL. In addition, the “CFU/mL, incubation time 20 d” value in test [1] is <5.0 × 10^1 CFU/mL.

For the compound `CC(=O)O` [Acetic acid], the MIC against S. aureus was determined as 0.06 wt %; with P. aeruginosa, 0.06 wt %; in the test on A. brasiliensis it was 0.2 wt %; in the test with E. coli, 0.1 wt %; in the test with C. albicans, 0.2 wt %.

`CC(=O)NO` [Acetohydroxamic acid]: the MIC against S. aureus amounted to 0.5 wt %; in the test with P. aeruginosa it was 0.5 wt %; against A. brasiliensis it was 0.5 wt %; against E. coli, 0.5 wt %; in the test on C. albicans, 0.2 wt %.

In the case of `O=C(O)c1ccccc1` [Benzoic acid], the MIC against S. aureus, with P. aeruginosa, against A. brasiliensis, with E. coli and with C. albicans was 0.2 wt % throughout.

Consider `OCc1ccccc1` [Benzyl alcohol], for which the MIC was 0.5 wt % in the test on S. aureus; 0.2 wt % with P. aeruginosa; 0.5 wt % against A. brasiliensis; 0.5 wt % in the test with E. coli; 0.5 wt % against C. albicans.

For `CCCCCCCC(=O)O` [Caprylic acid], the MIC in the test with S. aureus, in the test on P. aeruginosa, against A. brasiliensis, in the test with E. coli and in the test on C. albicans was 0.5 wt % throughout.

As for `CCCCCCC(O)CO` (stereo not shown) [Caprylyl Glycol], in test [1], the “Log Reduction Day 5” value is 0 Log and the “Log Reduction Day 12” value was 1 Log.

With `CCO` [Ethanol], the MIC against S. aureus was 10 wt %; with P. aeruginosa, 10 wt %; with A. brasiliensis, 0.47 wt %; in the test with C. albicans it was 10 wt %.

In the case of `CO` [Methanol], the MIC in the test on S. aureus was 20 wt %; in the test on P. aeruginosa, 20 wt %; against A. brasiliensis, 0.5 wt %; in the test with C. albicans, 20 wt %.

In the case of `Cl.ONCc1ccccc1` [N-benzylhydroxylamine HCl], the MIC with S. aureus was found to be 0.5 wt %; in the test on P. aeruginosa it was 0.2 wt %; in the test on A. brasiliensis it was 0.2 wt %; with E. coli, 0.5 wt %; with C. albicans, 0.5 wt %.

Take `O=C1CCC(=O)N1O` [N-hydroxysuccinimide]: the MIC against S. aureus is 0.5 wt %; in the test with P. aeruginosa, 0.5 wt %; in the test with A. brasiliensis, over 0.5 wt %; against E. coli, over 0.5 wt %.

For the compound `Cl.NOCc1ccccc1` [O-benzylhydroxylamine HCl], the MIC stood at 0.2 wt % with S. aureus; 0.2 wt % with P. aeruginosa; 0.2 wt % in the test on A. brasiliensis; 0.2 wt % with E. coli; 0.5 wt % against C. albicans.

Take `CCON.Cl` [O-ethylhydroxylamine HCl]: the MIC is 0.1 wt % against S. aureus; 0.1 wt % in the test on P. aeruginosa; 0.1 wt % in the test with A. brasiliensis; 0.1 wt % in the test on E. coli; 0.2 wt % against C. albicans.

For `CON.Cl` [O-methylhydroxylamine HCl], the MIC worked out at 0.06 wt % in the test on S. aureus; 0.1 wt % with P. aeruginosa; 0.1 wt % against A. brasiliensis; 0.2 wt % against E. coli; 0.5 wt % in the test with C. albicans.

As to `Cl.NOc1ccccc1` [O-phenylhydroxylamine HCl], the MIC is given as over 0.5 wt % against S. aureus; 0.2 wt % in the test on P. aeruginosa; 0.06 wt % in the test on A. brasiliensis; 0.3 wt % with E. coli; 0.1 wt % with C. albicans.

As for `CC(C)(C)ON.Cl` [O-tert-butylhydroxylamine HCl], the MIC stood at 0.1 wt % in the test with S. aureus; 0.2 wt % in the test on P. aeruginosa; 0.5 wt % in the test with A. brasiliensis; 0.5 wt % with E. coli; 0.5 wt % in the test on C. albicans.

Take `Oc1ccccc1` [Phenol]: the MIC in the test on S. aureus is given as 0.2 wt %; with P. aeruginosa, 0.2 wt %; with A. brasiliensis it was 0.1 wt %; against E. coli, over 0.5 wt %; with C. albicans, 0.2 wt %.

With `CCCOC(=O)c1cc(O)c(O)c(O)c1` [Propyl gallate], in test [1], the “Log Reduction Day 5” value was determined as 1 Log and the “Log Reduction Day 12” value came to 1 Log.

As to `O=C(O)c1ccccc1O` [Salicylic acid], the MIC in the test on S. aureus was 0.1 wt %; with P. aeruginosa, 0.2 wt %; in the test with A. brasiliensis, 0.5 wt %; in the test on E. coli it was 0.2 wt %; in the test on C. albicans it was 0.5 wt %.

In the case of `O=C(CCCCCCC(=O)NO)NO` [Suberohydroxamic acid], the MIC against S. aureus was 0.5 wt %; in the test on P. aeruginosa it was 0.5 wt %; against A. brasiliensis it was 0.5 wt %; in the test with E. coli, over 0.5 wt %; against C. albicans, 0.5 wt %.

On to `CC(C)(C)O` [t-Butanol], for which the MIC against S. aureus is 5 wt %; in the test with P. aeruginosa, 20 wt %; with A. brasiliensis, over 0.5 wt %; against E. coli, over 0.5 wt %; with C. albicans, 0.5 wt %.

For the compound Sorbitan caprylate, the “Log Reduction Day 12” value in test [1] came out at 0 Log.
